The text below walks through data of patent publication US9944597B2, “Polysubstituted pyrroles having microtubule-disrupting, cytotoxic and antitumor activities and methods of use thereof” (THE BOARD OF REGENTS OF THE UNIVERSITY OF TEXAS SYSTEM, priority 2013, dated 2018).

The target in series [1] is T1, purified porcine brain tubulin (Sus scrofa, UniProt P02554).
T1 construct: of Purified Porcine Brain Tubulin; from tissue; host or cells: porcine brain
The series is described as follows: Inhibition of polymerization of purified tubulin (absorbance at 340 nm). Conditions: for inhibition at 2 µM: compound at 2 μM. Type of series: biochemical.

Series [2] has as its target colchicine binding site on tubulin (Sus scrofa, UniProt P02554). The series is described as follows: Colchicine site binding, fluorometric assay. The conditions noted are these: for effect on colchicine binding (FIG. 9): result in words.
The test system of series [3] is A-10 cells. Briefly: Cellular microtubule loss by indirect immunofluorescence. Type of series: cell-based, rat. The conditions noted are these: Rattus norvegicus, A10. In outline: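 Rat embryonic vascular smooth muscle cells were treated across a range of compound concentrations. Microtubules were stained by indirect β-tubulin immunofluorescence, with DAPI for DNA. EC50 is the concentration giving about 50% interphase microtubule loss, scored visually, from curves over at least three experiments.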

For series [4], the system named is HeLa cells. The series is described as follows: Cell cycle distribution by flow cytometry. Type of series: cell-based, human. Conditions: HeLa cells treated for 18 hr; FIG. 3: 25 nM NT-7-16, 12.5 nM paclitaxel. The protocol: The effects of NT-7-16 on cell cycle distribution were determined. […] The cells were stained with Kirshan's reagent (Kirshan, Cell Biol. 66, 188-93 (1975)), and cell cycle distribution was measured using a Millipore Muse flow cytometer.
The effects of NT-7-16 on cell cycle distribution were determined. […] The cells were stained with Kirshan's reagent (Kirshan Cell Biol. 66, 188-93. (1975)), and cell cycle distribution was measured using a Millipore Muse flow cytometer.
(In flow cytometry, cells or beads pass a laser one at a time.)

A further series concerns MDA-MB-435 xenograft. The series is described as follows: MDA-MB-435 xenograft murine model. Type of series: in vivo. The protocol:
The antitumor activity of NT-7-45 was evaluated in the MDA-MB-435 xenograft murine model of cancer. MDA-MB-435 cells were implanted subcutaneously into both flanks of nude mice. Mice were treated periodically with six injections of NT-7-45 i.p. at 75 mg/kg, suspended in a mixture of Tween80, DMSO and PBS.
The antitumor activity of NT-7-16 was evaluated in the MDA-MB-435 xenograft murine model of cancer. MDA-MB-435 cells were implanted subcutaneously into both flanks of nude mice. Mice were treated on days 1, 4, 7, 11, 14, 18, 20 and 22 by injecting NT-7-16 i.p. at 50 mg/kg suspended in a mixture of Tween80, DMSO and PBS. […] As shown in FIG. 5-7, NT-7-16 inhibited tumor growth as compared to vehicle-treated controls in a statistically significant (p<0.05) manner at days 11, 13, 15, 18 and 22.

For series [5], the system named is HeLa cells. Briefly: Mitotic spindles by indirect immunofluorescence. Type of series: cell-based, human. The conditions noted are these: 18 h, 15 nM or 25 nM. Here is the method: The effects of NT-7-16 on mitotic spindles were evaluated in HeLa cells by indirect immunofluorescence. HeLa cells were treated for 18 h with (A) vehicle (DMSO), (B) 15 nM NT-7-16 or (C) 25 nM NT-7-16. […] These effects are consistent with the actions of other microtubule disrupting agents. The presence of lagging chromosomes is indicated by the arrows and is caused by disruption of normal microtubule dynamics.

The test system of series [6] is MDA-MB-435 (human melanoma cancer cells). Briefly: Antiproliferative SRB assay, MDA-MB-435. Type of series: cell-based. The conditions noted are these: Homo sapiens, MDA-MB-435. An outline of the steps: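 After 24 h attachment, MDA-MB-435 cells were exposed to compounds for 48 h, then fixed with trichloroacetic acid. Cellular protein was quantified by sulforhodamine B staining. IC50 for proliferation inhibition was taken from the linear portion of log concentration–response curves.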
On the technique in general: Sulforhodamine B stains cellular protein and so reports cell mass.

Another series concerns SK-OV-3-MDR-1-6/6 cells. The series is described as follows: Antiproliferative SRB assay, Pgp expressing SK-OV-3. The conditions noted are these: for IC50: Homo sapiens, SK-OV-3, Table 49, Pgp expressing line, 48 hr, SRB assay; for Rr (Pgp): relative resistance: IC50 of expressing line divided by IC50 of parental SK-OV-3. It is filed as cell-based, human.
For series [7], the system named is HeLa (human cervical cancer cells). The series is described as follows: Antiproliferative SRB assay, HeLa. It is filed as cell-based. The conditions noted are these: Homo sapiens, HeLa. In outline: (§1)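 Cells attached and grew 24 h, then were exposed to compound for 48 h, TCA-fixed and protein stained with sulforhodamine B. IC50 taken from linear portion of log concentration-response curves; relative resistance = IC50 in expressing line / IC50 in parental line.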

In the next series the test system is HeLa WT-β-III cells. Briefly: Antiproliferative SRB assay, βIII-tubulin expressing HeLa. It is filed as cell-based, human. The conditions noted are these: for IC50: Homo sapiens, HeLa, Table 49, βIII tubulin expressing line, 48 hr, SRB assay; for Rr (β-III): relative resistance: IC50 of expressing line divided by IC50 of parental HeLa. An outline of the steps:
as §1

Series [8] deals with SK-OV-3 (human ovarian cancer cells). Briefly: Antiproliferative SRB assay, SK-OV-3. It is filed as cell-based. Conditions: Homo sapiens.
Series [9] deals with variety of cancer cell lines. Conditions: cited from earlier work.
The next series has as its system PC-3 xenograft. Conditions: i.p. dosing at relatively high doses, after 14 days of treatment; cited from earlier work.
Series [10] relates to MDA-MB-435 (human melanoma cancer cells). The conditions noted are these: Table 53; literature data from Da et al. 2013; read-out: MDA-MB-435 Antiproliferative IC50; cited from earlier work.
The target of another series is P-glycoprotein (Homo sapiens, UniProt P08183). The conditions noted are these: cited from earlier work.
P-glycoprotein, sequence (P08183 whole entry): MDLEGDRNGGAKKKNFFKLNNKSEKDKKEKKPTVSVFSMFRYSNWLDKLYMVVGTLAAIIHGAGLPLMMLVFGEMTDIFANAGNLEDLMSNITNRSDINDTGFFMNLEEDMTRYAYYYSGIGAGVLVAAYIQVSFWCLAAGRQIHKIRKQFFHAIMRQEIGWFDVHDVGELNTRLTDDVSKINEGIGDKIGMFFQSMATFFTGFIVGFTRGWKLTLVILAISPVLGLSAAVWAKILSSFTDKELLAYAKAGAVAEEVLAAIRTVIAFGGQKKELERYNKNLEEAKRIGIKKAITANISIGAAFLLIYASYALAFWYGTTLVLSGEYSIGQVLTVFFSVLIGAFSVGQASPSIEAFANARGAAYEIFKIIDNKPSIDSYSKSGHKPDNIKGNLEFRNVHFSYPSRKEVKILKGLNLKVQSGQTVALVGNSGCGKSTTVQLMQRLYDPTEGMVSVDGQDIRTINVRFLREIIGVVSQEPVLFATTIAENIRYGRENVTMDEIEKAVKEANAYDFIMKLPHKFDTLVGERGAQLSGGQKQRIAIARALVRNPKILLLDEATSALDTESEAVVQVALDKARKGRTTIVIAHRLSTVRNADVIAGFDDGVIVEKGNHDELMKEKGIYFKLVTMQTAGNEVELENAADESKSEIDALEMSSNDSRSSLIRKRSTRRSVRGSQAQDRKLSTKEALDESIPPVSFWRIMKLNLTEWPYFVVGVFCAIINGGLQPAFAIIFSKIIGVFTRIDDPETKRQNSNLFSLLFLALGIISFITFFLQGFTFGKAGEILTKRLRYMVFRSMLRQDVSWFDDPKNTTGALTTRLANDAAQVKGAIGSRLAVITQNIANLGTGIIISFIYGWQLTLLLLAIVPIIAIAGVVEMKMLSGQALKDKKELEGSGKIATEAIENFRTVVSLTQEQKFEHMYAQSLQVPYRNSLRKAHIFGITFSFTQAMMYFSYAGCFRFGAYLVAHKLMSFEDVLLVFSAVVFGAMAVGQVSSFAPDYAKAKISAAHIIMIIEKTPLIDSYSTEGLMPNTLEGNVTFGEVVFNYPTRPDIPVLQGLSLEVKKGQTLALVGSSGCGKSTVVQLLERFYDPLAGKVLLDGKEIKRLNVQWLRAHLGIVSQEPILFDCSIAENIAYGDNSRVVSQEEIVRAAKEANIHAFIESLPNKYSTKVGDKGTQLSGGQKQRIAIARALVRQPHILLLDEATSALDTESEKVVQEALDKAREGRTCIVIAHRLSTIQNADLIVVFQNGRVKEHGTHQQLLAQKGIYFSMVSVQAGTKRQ
Series [11] concerns A-10 cells. Conditions: Table 53; literature data from Da et al. 2013; read-out: Microtubule Depolymerization EC50; cited from earlier work.
Where [12] appears, read: Table 48, 48 hr exposure, read-out: HeLa Anti-Proliferative Activity, IC50.
Setting [13] is: Table 49, parental line, 48 hr, read-out: HeLa IC50.
[14] abbreviates: Table 48, 48 hr exposure, SRB assay, read-out: MDA-MB-435 Anti-Proliferative Activity, IC50.
Setting [15] is: Table 50, concentration causing approximately 50% loss of interphase microtubules, read-out: EC50 Values (nM) for Microtubule Loss in A-10 cells.
[16] abbreviates: SK-OV-3, Table 48, 48 hr exposure, read-out: SK-OV-3 Anti-Proliferative Activity, IC50.
Where [17] appears, read: SK-OV-3, Table 49, parental line, 48 hr, read-out: SK-OV-3 IC50.
[18] abbreviates: Table 52, read-out: MDA-MB-435 Anti-Proliferative Activity, IC50.

The structures appear in SMILES notation. Entries after “also recorded” stand apart in the source; their conditions may differ. Like-named read-outs stand apart in the source and are kept apart here.

colchicine binding site on tubulin, sequence (P02554 whole entry): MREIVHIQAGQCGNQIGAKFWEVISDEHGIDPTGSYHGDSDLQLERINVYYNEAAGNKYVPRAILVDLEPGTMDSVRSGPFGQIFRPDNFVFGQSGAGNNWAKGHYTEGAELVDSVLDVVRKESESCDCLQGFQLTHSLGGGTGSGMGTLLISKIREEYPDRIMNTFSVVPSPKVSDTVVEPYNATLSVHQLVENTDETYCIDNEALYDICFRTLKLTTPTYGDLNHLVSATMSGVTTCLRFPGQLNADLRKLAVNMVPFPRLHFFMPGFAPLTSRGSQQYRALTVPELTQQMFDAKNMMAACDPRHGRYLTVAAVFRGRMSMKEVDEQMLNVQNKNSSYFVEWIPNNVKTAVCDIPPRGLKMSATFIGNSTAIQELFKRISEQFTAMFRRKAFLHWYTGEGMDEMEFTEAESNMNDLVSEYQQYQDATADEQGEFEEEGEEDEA
colchicine binding site on tubulin, sequence (P02550 whole entry partner): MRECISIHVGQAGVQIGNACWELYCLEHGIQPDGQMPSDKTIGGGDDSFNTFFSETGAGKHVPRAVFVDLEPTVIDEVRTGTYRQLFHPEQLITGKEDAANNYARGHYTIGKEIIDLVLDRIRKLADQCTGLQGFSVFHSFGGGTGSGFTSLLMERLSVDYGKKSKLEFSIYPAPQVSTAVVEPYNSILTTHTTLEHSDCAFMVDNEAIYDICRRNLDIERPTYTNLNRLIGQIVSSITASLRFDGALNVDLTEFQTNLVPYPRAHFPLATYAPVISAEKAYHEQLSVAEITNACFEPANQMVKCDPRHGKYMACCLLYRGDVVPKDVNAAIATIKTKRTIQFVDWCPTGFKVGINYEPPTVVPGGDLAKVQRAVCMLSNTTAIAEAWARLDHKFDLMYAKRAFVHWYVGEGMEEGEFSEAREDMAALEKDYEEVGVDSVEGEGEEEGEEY
T1 sequence (P02554 whole entry): as the sequence (P02554 whole entry) above
T1 sequence (P02550 whole entry partner): as the sequence (P02550 whole entry partner) above

Usually inhibition stands for the relative decrease from the control value, in per cent. One may read the EC50 as the concentration giving half of the maximal effect. In general, IC50 refers to the concentration needed to halve the response being measured. For the molecule `CCOC(=O)c1[nH]c(Br)c(-c2ccc(OC)c(OC)c2OC)c1Br` [NT-7-16, 3,5-Dibromo-4-(2,3,4-trimethoxyphenyl)-1H-pyrrole-2-carboxylic acid ethyl ester], the “inhibition of tubulin assembly” value in series [1] (at concentrations of 2-5 μM) is “almost total inhibition”. The “effect on tubulin polymerization (turbidity, FIG. 2, FIG. 10)” value in [1] (result in words) was “concentration-dependent inhibition of tubulin assembly; also recorded: inhibits tubulin polymerization”. Also, in series [2] (read-out: inhibition of colchicine binding to tubulin), the inhibition at 10 µM is around 80%. In addition, in series [2], the “effect on colchicine binding (FIG. 9)” value is on record as “concentration dependent inhibition of colchicine binding”. Further, the EC50 in the series on A-10 cells [3] (Table 53, own compounds, read-out: Microtubule Depolymerization EC50) worked out at 345 nM. In the series on HeLa cells [4], the cell cycle distribution result is recorded as “initiated mitotic accumulation; also recorded: G2/M arrest”. Moreover, the “tumor growth in MDA-MB-435 xenograft” value in the series on MDA-MB-435 xenograft (50 mg/kg i.p. on days 1, 4, 7, 11, 14, 18, 20, 22, 25-day model) is “significant antitumor effects; also recorded: prevented tumor growth; also recorded: statistically significant (p<0.05) inhibition of tumor growth”. Besides, in the series with MDA-MB-435 xenograft (50 mg/kg i.p., eight cumulative doses), the “toxicity in xenograft study” value is on record as “no evidence of toxicity; also recorded: no overt toxicity”. In addition, in the series with MDA-MB-435 xenograft (50 mg/kg i.p., over 25 days), the animal body weight entry was “no significant change in animal body weight; also recorded: no significant weight loss”. Moreover, the “effects on mitotic spindles” value with HeLa cells [5] is “aberrant mitotic spindles”. The half-maximal inhibitory concentration (IC50) in series [6] (Table 53, own compounds, read-out: MDA-MB-435 Antiproliferative IC50) stood at 0.014 ± 0.005 µM.
Turning to `CC(=O)O[C@H]1C(=O)[C@@]2(C)[C@H]([C@H](OC(=O)c3ccccc3)[C@]3(O)C[C@H](OC(=O)[C@H](O)[C@@H](NC(=O)c4ccccc4)c4ccccc4)C(C)=C1C3(C)C)[C@]1(OC(C)=O)CO[C@@H]1C[C@@H]2O` [paclitaxel, reference compound], the concentration for half-maximal inhibition (IC50) with SK-OV-3-MDR-1-6/6 cells was 2.33 µM; in series [7] (setting [12]), 0.0015 ± 5e-05 µM; in series [7] (setting [13]) it was 0.0015 ± 5e-05 µM; in the series on HeLa WT-β-III cells, 0.0211 ± 0.0018 µM; in [6] (setting [14]) it was 0.002 ± 0.0001 µM. For the same molecule, the cell cycle distribution entry in the series with HeLa cells [4] is reported as “initiated mitotic accumulation”. Besides, in the series on HeLa WT-β-III cells, the “Rr (β-III)” value came to 14.1.
On to `CC[C@]1(O)C[C@@H]2CN(CCc3c([nH]c4ccccc34)[C@@](C(=O)OC)(c3cc4c(cc3OC)N(C)[C@H]3[C@@](O)(C(=O)OC)[C@H](OC(C)=O)[C@]5(CC)C=CCN6CC[C@]43[C@@H]65)C2)C1` [vinblastine, reference compound], for which the “effect on colchicine binding” value in series [2] (at 100 μM) is recorded as “no effect”. In series [2], the “effect on colchicine binding (FIG. 9)” value is given as “does not”.
The melting point is the temperature of the solid-liquid transition. Turning to `CCOC(=O)c1[nH]c(C#N)c(-c2ccc(OC)c(OC)c2OC)c1Br` [Example 11, 3-Bromo-4-(2,3,4-trimethoxyphenyl)-5-cyano-1H-pyrrole 2-carboxylic acid ethyl ester], the melting point was 173 to 176 °C. Also, at 2 µM the inhibition in series [1] was 78%. In the series with A-10 cells [3] (setting [15]), the EC50 was determined as 88.1 nM. For the same molecule, the IC50 in [8] (setting [16]) stood at 0.0262 ± 0.0021 µM. In addition, the IC50 in series [8] (setting [17]) turned out to be 0.0262 ± 0.0021 µM. In the series with SK-OV-3-MDR-1-6/6 cells, half-maximal inhibition (IC50) required 0.0422 ± 0.0055 µM and the “Rr (Pgp)” value was 1.6. The IC50 in [7] (setting [12]) was 0.0206 ± 0.0019 µM. In series [7] (setting [13]), the half-inhibitory concentration (IC50) was determined as 0.0206 ± 0.0019 µM. In addition, in the series on HeLa WT-β-III cells, the IC50 was 0.0261 ± 0.0008 µM and the “Rr (β-III)” value was 1.3. In addition, in [6] (setting [14]), the IC50 stood at 0.0196 ± 0.0018 µM. Also, the IC50 in series [6] (setting [18]) worked out at 0.0196 ± 0.0018 µM.
In the case of `CCOC(=O)c1[nH]c(C=NOC)c(-c2ccc(OC)c(OC)c2OC)c1Br` (mixture of isomers) [Example 12, Cis/Trans-3-Bromo-4-(2,3,4-trimethoxyphenyl)-5-(O-methyl-oximino)-1H-pyrrole-2-carboxylic acid ethyl ester], the melting point fell in the range of 125 to 128 °C. In addition, the inhibition at 2 µM in series [1] was found to be 99%. Moreover, the EC50 in the series with A-10 cells [3] (setting [15]) came out at 22 nM. For the same molecule, the IC50 in series [8] (setting [16]) worked out at 0.0138 ± 0.0009 µM. In addition, the half-inhibitory concentration (IC50) in series [8] (setting [17]) is 0.0138 ± 0.0009 µM. In the series on SK-OV-3-MDR-1-6/6 cells, the IC50 came out at 0.0175 ± 0.0012 µM and the “Rr (Pgp)” value is reported as 1.3. In [7] (setting [12]), the half-inhibitory concentration (IC50) came to 0.0119 ± 0.0013 µM. Moreover, the IC50 in [7] (setting [13]) was 0.0119 ± 0.0013 µM. Further, in the series on HeLa WT-β-III cells, the 50% inhibitory concentration (IC50) is 0.0125 ± 0.0002 µM and the “Rr (β-III)” value is 1.1. The 50% inhibitory concentration (IC50) in series [6] (setting [14]) stood at 0.0076 ± 0.0005 µM. The half-maximal inhibitory concentration (IC50) in series [6] (setting [18]) worked out at 0.0076 ± 0.0005 µM.
On to `CCOC(=O)c1[nH]c(Br)c(-c2cc(OC)c(OC)c(OC)c2)c1Br` [4-[(3,4,5-trimethoxy)-phenyl]-3,5-dibromopyrrole 2-carboxylic acid ethyl ester], for which the “fold less active than JG-03-14 in vitro” value in [9] (against cancer cell lines) was “more than 350 fold”.
Regarding `CCOC(=O)c1[nH]c(Br)c(-c2ccc(OC)c(OC)c2)c1Br` [JG-03-14, 4-[(3,4-dimethoxy)-phenyl]-3,5-dibromopyrrole 2-carboxylic acid ethyl ester], in the series with PC-3 xenograft, the “reduction in tumor burden” value is reported as “greater than 50%”. Besides, the IC50 in series [9] (average over a variety of cancer cell lines, read-out: antiproliferative activity, average IC50) is 0.062 µM; in series [10], 0.036 ± 0.002 µM. The “substrate for transport by P-glycoprotein” value at P-glycoprotein is listed as “poor substrate”. In addition, the EC50 in the series on A-10 cells [11] was 0.49 µM.
